Results reported in patent US5242935A, “Method for treatment of neurodegenerative diseases” (R. J. Reynolds Tobacco Company, priority 1992, dated 1993).

Columns and labels:
[1] = molecular target: high affinity nicotinic receptors; experiment: Inhibition of L-[3H]nicotine binding to mouse brain membrane preparations; design: species or system mouse (DBA strain); conditions: mouse brain membranes, 2 hr at 4° C., Ki calculated from IC50 by Cheng method
Procedure: Mice (DBA strain) were maintained on a 12 hour light/dark cycle and were allowed free access to water and food supplied by Wayne Lab Blox, Madison, WI. Animals used in the present studies were 60 to 90 days of age and weighed 20 to 25 g. Brain membrane preparations were obtained from pooled brain tissue of both males and females.
Mice were killed by cervical dislocation. Brains were removed and placed on an ice-cold platform. The cerebellum was removed and the remaining tissue was placed in 10 volumes (weight:volume) of ice-cold buffer (Krebs-RingersHEPES:NaCl, 118 mM; KCl, 4.8 mM; CaCl2, 2.5 mM; MgSO4, 1.2 mM; HEPES, 20 mM; pH to 7.5 with NaOH) and homogenized with a glass-Teflon tissue grinder. The resulting homogenate was centrifuged at 18000×g for 20 min. and the resulting pellet was resuspended in 20 volumes of water. After 60 min. incubation at 4.C, a new pellet was collected by centrifugation at 18000×g for 20 min. After resuspension in 10 volumes of buffer, a new final pellet was again collected by centrifugation at 18000×g for 20 min. Prior to each centrifugation step, the suspension was incubated at 37° C. for 5 min. to promote hydrolysis of endogenous acetylcholine. The final pellet was overlayered with buffer and stored at -70° C. On the day of the assay, that pellet was thawed, resuspended in buffer and centrifuged at 18000×g for 20 min. The resulting pellet obtained was resuspended in buffer to a final concentration of approximately 5 mg protein/ml. Protein was determined by the method of Lowry, et al., J. Biol. Chem., Vol. 193, pp. 265-275 (1951), using bovine serum albumin as the standard.
The binding of L-[^3 H]nicotine was measured using a modification of the method of Romano, et al., Science, Vol. 210, pp. 647-650 (1980) as described previously by Marks, et al., Mol. Pharmacol., Vol. 30, pp. 427-436 (1986). The binding of L-[^3 H]nicotine was measured using a 2 hr. incubation at 4° C. Incubations contained about 500 μg of protein and were conducted in 12 mm×75 mm polypropylene test tubes in a final incubation volume of 250 μl. The incubation buffer was Krebs-Ringers HEPES containing 200 mM TRIS buffer, pH 7.5. The binding reaction was terminated by filtration of the protein containing bound ligand onto glass fiber filters (Micro Filtration Systems) that had been soaked in buffer containing 0.5 percent polyethyleneimine. Filtration vacuum was -50 to -100 torr. Each filter was washed five times with 3 ml of ice-cold buffer. The filtration apparatus was cooled to 2° C. before use and was kept cold through the filtration process. Nonspecific binding was determined by inclusion of 10 μM nonradioactive nicotine in the incubations. The inhibition of L-[^3 H]nicotine binding by test compounds was determined by including one of eight different concentrations of the test compound in the incubation. Inhibition profiles were measured using 10 nM L-[^3 H]nicotine and IC50 values were estimated as the concentration of compound that inhibited 50 percent of specific L-[^3 H]nicotine binding. Inhibition constants (Ki values) were calculated from the IC50 values using the method of Cheng, et al., Biochem. Pharmacol., Vol. 22, pp. 3099-3108 (1973). […] The L-[^3 H]nicotine used in all experiments was purified chromatographically by the method of Romm, et al., Life Sci., Vol. 46, pp. 935-943 (1990).

[2] = test system: synaptosomes from the striatal area of rat brain; experiment: [3H]Dopamine release from rat striatal synaptosomes (continuous perfusion); format: cell-based, rat (Sprague-Dawley); conditions: 0.2 ml of a 20 μM solution of ligand, relative to equal concentration of S(-) nicotine, read-out: Dopamine Release (percent release relative to S(-) nicotine)
Procedure: Dopamine release was measured by preparing synaptosomes from the striatal area of rat brain obtained from Sprague-Dawley rats generally according to the procedures set forth by Nagy, et al., J. Neurochem., Vol. 43, pp. 1114-1123 (1984). Striata from 4 rats were homogenized in 2 ml of 0.32M sucrose buffered with 5 mM HEPES (pH 7.5), using a glass-teflon tissue grinder. The homogenate was diluted to 5 ml with additional homogenization solution and centrifuged at 1000×g for 10 min. This procedure was repeated on the new pellet
the resulting supernatant was centrifuged at 12,000×g for 20 min. A 3 layer discontinuous Percoll gradient consisting of 16 percent, 10 percent and 7.5 percent Percoll in HEPES-buffered sucrose was made with the final pellet dispersed in the top layer. After centrifugation at 15,000×g for 20 min., the synaptosomes were recovered above the 16 percent layer with a pasteur pipette, diluted with 8 ml of perfusion buffer (128 mM NaCl, 2.4 mM KCl, 3.2 mM CaCl2, 1.2 mM KH2 PO4, 1.2 mM MgSO4, 25 mM HEPES pH 7.4, 10 mM dextrose, 1 mM ascorbate, 0.01 mM pargyline), and centrifuged at 15,000×g for 20 min. The new pellet was collected and re-suspended in perfusion buffer. The synaptosome suspension was incubated for 10 min. at 37° C. Then [^3 H]dopamine (Amersham, 40-60 Ci/mmol) was added to the suspension to give a final concentration of 0.1 μM in suspension, and the suspension was incubated for another 5 min. Using this method, 30 to 90 percent of the dopamine was taken up into the synaptosomes, as determined by scintillation counting following filtration through glass fiber filters soaked with 0.5 percent polyethyleneimine. A continuous perfusion system was used to monitor release following exposure to each ligand (i.e., 5-fluoronicotine, 5-bromonicotine, 4^1 -methylnicotine, 5'-methylnicotine, and 5-methylnicotine). Synaptosomes were loaded onto glass fiber filters (Gelman type A/E). Perfusion buffer was dripped onto the filters (0.2-0.3 ml/min.) and pulled through the filters with a peristaltic pump. Synaptosomes were washed with perfusion buffer for a minimum of 20 min. before addition of the ligand. After the addition of a 0.2 ml of a 20 μM solution of ligand, the perfusate was collected into scintillation vials at 1 min. intervals and the dopamine released was quantified by scintillation counting. Peaks of radioactivity released above background were summed and the average basal release during that time was subtracted from the total. Release was expressed as a percentage of release obtained with an equal concentration of S(-) nicotine.

Which Ki [1] does the source give for CC1CC(c2cccnc2)N(C)C1 (racemic) [4^1 -methylnicotine] here?
The Ki was 91 ± 7 nM.

What about the Emax at 20 µM [2] of the same molecule?
Its Emax at 20 µM is 40%.

How did the Ki [1] turn out when CN1CCCC1c1cncc(Br)c1 (racemic) [5-bromonicotine] was run?
Its Ki is 44 ± 12 nM.

What about the Emax at 20 µM [2] of the same molecule?
Its Emax at 20 µM is 65%.

Which Ki [1] does the source give for CN1CCCC1c1cncc(F)c1 (racemic) [5-fluoronicotine] here?
The Ki was 61 ± 16 nM.

And the Emax at 20 µM [2]?
The Emax at 20 µM was 110%.

How did the Ki [1] turn out when Cc1cncc(C2CCCN2C)c1 (racemic) [5-methylnicotine] was run?
Its Ki is 2 ± 0.8 nM.

What about the Emax at 20 µM [2] of the same molecule?
Its Emax at 20 µM is 30%.

For CC1CCC(c2cccnc2)N1C (racemic) [5^1 -methylnicotine], which Ki [1] is on record?
The Ki was 6400 nM.

And the Emax at 20 µM [2]?
Its Emax at 20 µM is 5%.
